Consider eleven compounds from patent publication US11771738B2 (Zoetis Services LLC, priority 2018, dated 2023).

Common to all, as to format: cell-based
The subject of one assay is D. immitis L4 larvae. As to the kind of experiment: Dirofilaria immitis, L4 Stage (DiL4) In Vitro Assay. The settings on record: for minimal effective concentration: Dirofilaria immitis, 72 h, read-out: DiL4 MED, Minimum Effective Dose, D. immitis L4 larvae motility, in vitro; for DiMf/DiL4: larval stage selectivity, ratio of DiMf MED to DiL4 MED.
Assay [1] relates to third stage larvae of Haemonchus contortus. Put plainly: Haemonchus contortus, Larvae Stage 3 (HcL3) In Vitro Assay. The settings on record: for minimal effective concentration: Haemonchus contortus, 96 h.
Assay [2] deals with microfilariae of Dirofilaria immitis. Put plainly: Dirofilaria immitis, Microfilaria (DiMf) In Vitro Assay. The settings on record: for minimal effective concentration: Dirofilaria immitis, 72 h, read-out: DiMf MED, Minimum Effective Dose, D. immitis microfilariae motility, in vitro.
The mark [3] stands for this setting: read-out: HcL3 MED, Minimum Effective Dose, H. contortus third stage larvae, approximately 96 hours.

Where two headings read alike, the source gives them in different places. Marks after values point to notes of the source that are not given here.

For the compound `CC(C)C[C@H]1C(=O)O[C@H](Cc2ccc(Cc3cncc(F)c3)cc2)C(=O)N(C)[C@@H](CC(C)C)C(=O)O[C@H](C)C(=O)N(C)[C@@H](CC(C)C)C(=O)O[C@H](Cc2ccc(Cc3cncc(F)c3)cc2)C(=O)N(C)[C@@H](CC(C)C)C(=O)O[C@H](C)C(=O)N1C` [Example 3-194, (3S,6R,9S,12R,15S,18R,21S,24R)-6,18-bis(4-((5-fluoropyridin-3-yl)methyl)benzyl)-3,9,15,21-tetraisobutyl-4,10,12,16,22,24-hexamethyl-1,7,13,19-tetraoxa-4,10,16,22-tetraazacyclotetracosan-2,5,8,11,14,17,20,23-octaone], the minimal effective concentration with D. immitis L4 larvae is 0.001 µM; in assay [1] (setting [3]), greater than 100 µM; in assay [2], 0.001 µM. In addition, in the assay on D. immitis L4 larvae, the DiMf/DiL4 was found to be 1.

As for `COc1ccc(C(C)c2ccc(C[C@H]3OC(=O)[C@H](CC(C)C)N(C)C(=O)[C@@H](C)OC(=O)[C@H](CC(C)C)N(C)C(=O)[C@@H](Cc4ccc(C(C)c5ccc(OC)nc5)cc4)OC(=O)[C@H](CC(C)C)N(C)C(=O)[C@@H](C)OC(=O)[C@H](CC(C)C)N(C)C3=O)cc2)cn1` (stereo partly drawn) [Example 3-207, (3S,6R,9S,12R,15S,18R,21S,24R)-3,9,15,21-tetraisobutyl-6,18-bis(4-(1-(6-methoxypyridin-3-yl)ethyl)benzyl)-4,10,12,16,22,24-hexamethyl-1,7,13,19-tetraoxa-4,10,16,22-tetraazacyclotetracosan-2,5,8,11,14,17,20,23-octaone], the minimal effective concentration in the assay on D. immitis L4 larvae was 0.001 µM; in assay [1] (setting [3]), greater than 100 µM; in assay [2], 0.05 µM. The DiMf/DiL4 in the assay on D. immitis L4 larvae turned out to be 50.

Consider `COc1nc(C)c(Cc2ccc(C[C@H]3OC(=O)[C@H](CC(C)C)N(C)C(=O)[C@@H](C)OC(=O)[C@H](CC(C)C)N(C)C(=O)[C@@H](Cc4ccc(Cc5sc(OC)nc5C)cc4)OC(=O)[C@H](CC(C)C)N(C)C(=O)[C@@H](C)OC(=O)[C@H](CC(C)C)N(C)C3=O)cc2)s1` [Example 3-209, (3S,6R,9S,12R,15S,18R,21S,24R)-3,9,15,21-tetraisobutyl-6,18-bis(4-((2-methoxy-4-methylthiazol-5-yl)methyl)benzyl)-4,10,12,16,22,24-hexamethyl-1,7,13,19-tetraoxa-4,10,16,22-tetraazacyclotetracosan-2,5,8,11,14,17,20,23-octaone], for which the minimal effective concentration with D. immitis L4 larvae was 0.0005 µM; in assay [1] (setting [3]) it was greater than 100 µM; in assay [2], 0.01 µM. Besides, the DiMf/DiL4 in the assay on D. immitis L4 larvae came out at 20.

`COc1cccnc1Cc1ccc(C[C@H]2OC(=O)[C@H](CC(C)C)N(C)C(=O)[C@@H](C)OC(=O)[C@H](CC(C)C)N(C)C(=O)[C@@H](Cc3ccc(Cc4ncccc4OC)cc3)OC(=O)[C@H](CC(C)C)N(C)C(=O)[C@@H](C)OC(=O)[C@H](CC(C)C)N(C)C2=O)cc1` [Example 3-215]: the “DiL4 MED” value in the assay on D. immitis L4 larvae (Minimum Effective Dose, D. immitis L4 larvae motility, in vitro) is listed as less than 0.2 nM. Besides, the DiMf/DiL4 in the assay on D. immitis L4 larvae is listed as greater than 3.5. Moreover, the “HcL3 MED” value in assay [1] (Haemonchus contortus third stage larvae in vitro, class mark appended to the Ex # in Table 3) is 3-215* (Examples with an asterisk (*) have HcL3 MED values≤1 μM); in assay [1] (Minimum Effective Dose, H. contortus third stage larvae, approximately 96 hours), 1 µM. Besides, the “DiMf MED” value in assay [2] (Minimum Effective Dose, D. immitis microfilariae motility, in vitro) worked out at 0.7 nM.

As for `COc1ccnc(Cc2ccc(C[C@H]3OC(=O)[C@H](CC(C)C)N(C)C(=O)[C@@H](C)OC(=O)[C@H](CC(C)C)N(C)C(=O)[C@@H](Cc4ccc(Cc5nccc(OC)n5)cc4)OC(=O)[C@H](CC(C)C)N(C)C(=O)[C@@H](C)OC(=O)[C@H](CC(C)C)N(C)C3=O)cc2)n1` [Example 3-217, (3S,6R,9S,12R,15S,18R,21S,24R)-3,9,15,21-tetraisobutyl-6,18-bis(4-((4-methoxypyrimidin-2-yl)methyl)benzyl)-4,10,12,16,22,24-hexamethyl-1,7,13,19-tetraoxa-4,10,16,22-tetraazacyclotetracosan-2,5,8,11,14,17,20,23-octaone], the minimal effective concentration in the assay with D. immitis L4 larvae is less than 0.0007 µM; in assay [1] (read-out: HcL3 MED, Haemonchus contortus third stage larvae in vitro, class mark appended to the Ex # in Table 3), 1 to 3.3 µM; in assay [1] (setting [3]), 3.3 µM; in assay [2] it was 0.003 µM. Also, the DiMf/DiL4 in the assay on D. immitis L4 larvae is greater than 4.3.

For `COc1cncc(Cc2ccc(C[C@H]3OC(=O)[C@H](CC(C)C)N(C)C(=O)[C@@H](C)OC(=O)[C@H](CC(C)C)N(C)C(=O)[C@@H](Cc4ccc(Cc5cncc(OC)n5)cc4)OC(=O)[C@H](CC(C)C)N(C)C(=O)[C@@H](C)OC(=O)[C@H](CC(C)C)N(C)C3=O)cc2)n1` [Example 3-218, (3S,6R,9S,12R,15S,18R,21S,24R)-3,9,15,21-tetraisobutyl-6,18-bis(4-((6-methoxypyrazin-2-yl)methyl)benzyl)-4,10,12,16,22,24-hexamethyl-1,7,13,19-tetraoxa-4,10,16,22-tetraazacyclotetracosan-2,5,8,11,14,17,20,23-octaone], the minimal effective concentration in the assay with D. immitis L4 larvae was 0.0008 µM; in assay [1] (setting [3]) it was greater than 23 µM; in assay [2], 0.01 µM. Moreover, the DiMf/DiL4 with D. immitis L4 larvae is listed as 12.5.

On to `COc1ncccc1C(C)(F)c1ccc(C[C@H]2OC(=O)[C@H](CC(C)C)N(C)C(=O)[C@@H](C)OC(=O)[C@H](CC(C)C)N(C)C(=O)[C@@H](Cc3ccc(C(C)(F)c4cccnc4OC)cc3)OC(=O)[C@H](CC(C)C)N(C)C(=O)[C@@H](C)OC(=O)[C@H](CC(C)C)N(C)C2=O)cc1` (stereo partly drawn) [Example 3-220, (3S,6R,9S,12R,15S,18R,21S,24R)-6,18-bis(4-(1-fluoro-1-(2-methoxypyridin-3-yl)ethyl)benzyl)-3,9,15,21-tetraisobutyl-4,10,12,16,22,24-hexamethyl-1,7,13,19-tetraoxa-4,10,16,22-tetraazacyclotetracosan-2,5,8,11,14,17,20,23-octaone], for which the minimal effective concentration is 0.0007 µM in the assay with D. immitis L4 larvae, greater than 100 µM in assay [1] (setting [3]) and 0.005 µM in assay [2]. Besides, in the assay on D. immitis L4 larvae, the DiMf/DiL4 is given as 7.1.

Take `Cc1ccncc1Cc1ccc(C[C@H]2OC(=O)[C@H](CC(C)C)N(C)C(=O)[C@@H](C)OC(=O)[C@H](CC(C)C)N(C)C(=O)[C@@H](Cc3ccc(Cc4cnccc4C)cc3)OC(=O)[C@H](CC(C)C)N(C)C(=O)[C@@H](C)OC(=O)[C@H](CC(C)C)N(C)C2=O)cc1` [Example 3-223, (3S,6R,9S,12R,15S,18R,21S,24R)-3,9,15,21-tetraisobutyl-4,6,10,16,18,22-hexamethyl-12,24-bis(4-((4-methylpyridin-3-yl)methyl)benzyl)-1,7,13,19-tetraoxa-4,10,16,22-tetraazacyclotetracosan-2,5,8,11,14,17,20,23-octaone]: the figures for the minimal effective concentration (with D. immitis L4 larvae; in assay [1] (setting [3]); in assay [2]) were 0.0007 µM, 5.7 µM and 0.005 µM, respectively. In addition, the DiMf/DiL4 with D. immitis L4 larvae was 7.1.

As for `COc1cccc(C(C)(F)c2ccc(C[C@H]3OC(=O)[C@H](CC(C)C)N(C)C(=O)[C@@H](C)OC(=O)[C@H](CC(C)C)N(C)C(=O)[C@@H](Cc4ccc(C(C)(F)c5cccc(OC)n5)cc4)OC(=O)[C@H](CC(C)C)N(C)C(=O)[C@@H](C)OC(=O)[C@H](CC(C)C)N(C)C3=O)cc2)n1` (stereo partly drawn) [Example 3-225, (3S,6R,9S,12R,15S,18R,21S,24R)-6,18-bis(4-(1-fluoro-1-(6-methoxypyridin-2-yl)ethyl)benzyl)-3,9,15,21-tetraisobutyl-4,10,12,16,22,24-hexamethyl-1,7,13,19-tetraoxa-4,10,16,22-tetraazacyclotetracosan-2,5,8,11,14,17,20,23-octaone], the minimal effective concentration is 0.0007 µM in the assay with D. immitis L4 larvae, greater than 100 µM in assay [1] (setting [3]) and 0.3 µM in assay [2]. Besides, the DiMf/DiL4 in the assay on D. immitis L4 larvae was 429.

On to `CC(C)C[C@H]1C(=O)O[C@H](Cc2ccc(Cc3snnc3C(C)C)cc2)C(=O)N(C)[C@@H](CC(C)C)C(=O)O[C@H](C)C(=O)N(C)[C@@H](CC(C)C)C(=O)O[C@H](Cc2ccc(Cc3snnc3C(C)C)cc2)C(=O)N(C)[C@@H](CC(C)C)C(=O)O[C@H](C)C(=O)N1C` [Example 3-228, (3S,6R,9S,12R,15S,18R,21S,24R)-3,9,15,21-tetraisobutyl-6,18-bis(4-((4-isopropyl-1,2,3-thiadiazol-5-yl)methyl)benzyl)-4,10,12,16,22,24-hexamethyl-1,7,13,19-tetraoxa-4,10,16,22-tetraazacyclotetracosan-2,5,8,11,14,17,20,23-octaone], for which the minimal effective concentration is 0.0005 µM in the assay with D. immitis L4 larvae, greater than 100 µM in assay [1] (setting [3]) and 0.01 µM in assay [2]. For the same compound, in the assay on D. immitis L4 larvae, the DiMf/DiL4 stood at 20.

As to `CC(C)C[C@H]1C(=O)O[C@H](Cc2ccc(Cc3cccnc3C(F)(F)F)cc2)C(=O)N(C)[C@@H](CC(C)C)C(=O)O[C@H](C)C(=O)N(C)[C@@H](CC(C)C)C(=O)O[C@H](Cc2ccc(Cc3cccnc3C(F)(F)F)cc2)C(=O)N(C)[C@@H](CC(C)C)C(=O)O[C@H](C)C(=O)N1C` [Example 3-238, (3S,6R,9S,12R,15S,18R,21S,24R)-3,9,15,21-tetraisobutyl-4,6,10,16,18,22-hexamethyl-12,24-bis(4-((2-(trifluoromethyl)pyridin-3-yl)methyl)benzyl)-1,7,13,19-tetraoxa-4,10,16,22-tetraazacyclotetracosan-2,5,8,11,14,17,20,23-octaone], the minimal effective concentration is 0.0001 µM in the assay with D. immitis L4 larvae, greater than 5 µM in assay [1] (setting [3]) and 0.002 µM in assay [2]. In addition, the DiMf/DiL4 in the assay with D. immitis L4 larvae stood at 20.
